Reference: ChEMBL document CHEMBL4665856, “Design and synthesis of new disubstituted benzoxazolone derivatives that act as iNOS inhibitors with potent anti-inflammatory activity against LPS-induced acute lung injury (ALI)” (Bioorg Med Chem, 2020)
pIC50: −log10 of the molar value. The source made the active and inactive calls. No cut-off for these calls is given here.

Tests used:
[1] = system: RAW264.7; assay: Cytotoxicity against mouse RAW 264.7 cells assessed as reduction in cell proliferation at 25 uM by MTT assay; format: cell-based; conditions: raw264.7, 25 µM
[2] = system: Mus musculus; assay: Anti-inflammatory activity against LPS-induced ALI Kunming mouse model assessed as reduction in IL-6 level in serum at 3.125 to 12.5 mg/kg, po administered 4 hrs prior to LPS instillation and measured at 12 hrs post-LPS instillation by ELISA; format: functional, organism-based; conditions: dose mg/kg 3.125-12.5, time 16.0 hrs
[3] = system: RAW264.7; assay: Anti-inflammatory activity in mouse RAW264.7 cells assessed as inhibition of LPS-induced nitric oxide synthase production measured after 24 hrs by ELISA; format: functional, cell-based; conditions: RAW264.7, 24 h
[4] = system: Mus musculus; assay: Anti-inflammatory activity against LPS-induced ALI Kunming mouse model assessed as reduction in neutrophil infiltration in lungs by measuring decrease in MPO activity at 3.125 to 12.5 mg/kg, po administered 4 hrs prior to LPS instillation and measured at 12 hrs post-LPS instillation; format: functional, organism-based; conditions: dose mg/kg 3.125-12.5, time 16.0 hrs
[5] = system: Mus musculus; assay: Anti-inflammatory activity against LPS-induced ALI Kunming mouse model assessed as reduction in inflammatory infiltration in lungs and pulmonary congestion at 3.125 to 12.5 mg/kg, po administered 4 hrs prior to LPS instillation and measured at 12 hrs post-LPS instillation by hematoxylin-eosin staining based analysis; format: functional, organism-based; conditions: dose mg/kg 3.125-12.5, time 16.0 hrs
[6] = system: Mus musculus; assay: Anti-inflammatory activity against LPS-induced ALI Kunming mouse model assessed as reduction in lung edema by measuring reduction in lung wet-to-dry ratio at 3.125 to 12.5 mg/kg, po administered 4 hrs prior to LPS instillation and measured at 12 hrs post-LPS instillation; format: functional, organism-based; conditions: dose mg/kg 3.125-12.5, time 16.0 hrs
[7] = system: Mus musculus; assay: Anti-inflammatory activity against LPS-induced ALI Kunming mouse model assessed as reduction in TNF-alpha level in serum at 3.125 to 12.5 mg/kg, po administered 4 hrs prior to LPS instillation and measured at 12 hrs post-LPS instillation by ELISA; format: functional, organism-based; conditions: dose mg/kg 3.125-12.5, time 16.0 hrs
[8] = system: RAW264.7; assay: Antiinflammatory activity in mouse RAW264.7 cells assessed as reduction in LPS-induced IL-6 production at 12.5 uM measured after 24 hrs by ELISA; format: functional, cell-based
[9] = system: Mus musculus; assay: Anti-inflammatory activity in Kunming mouse assessed as inhibition of xylene-induced ear edema at 12.5 mg/kg, po dosed 1 hr prior to xylene challenge and measured at 30 mins post xylene injection relative to control; format: functional; conditions: 1.5 h, time 90 min
[10] = system: RAW264.7; assay: Antiinflammatory activity in mouse RAW264.7 cells assessed as reduction in LPS-induced TNF-alpha production at 12.5 uM measured after 24 hrs by ELISA; format: functional, cell-based
[11] = system: Mus musculus; assay: Anti-inflammatory activity against LPS-induced ALI Kunming mouse model assessed as reduction in iNOS level in serum at 3.125 to 12.5 mg/kg, po administered 4 hrs prior to LPS instillation and measured at 12 hrs post-LPS instillation by ELISA; format: functional, organism-based; conditions: dose mg/kg 3.125-12.5, time 16.0 hrs
[12] = system: RAW264.7; assay: Anti-inflammatory activity in mouse RAW264.7 cells assessed as reduction in LPS-induced iNOS mRNA expression at 12.5 uM by RT-PCR analysis; format: functional, cell-based
[13] = system: RAW264.7; assay: Antiinflammatory activity in mouse RAW264.7 cells assessed as reduction in LPS-induced IL-1 beta production at 12.5 uM measured after 24 hrs by ELISA; format: functional, cell-based
[14] = system: Mus musculus; assay: Anti-inflammatory activity against LPS-induced ALI Kunming mouse model assessed as reduction in IL-1 beta level in serum at 3.125 to 12.5 mg/kg, po administered 4 hrs prior to LPS instillation and measured at 12 hrs post-LPS instillation by ELISA; format: functional, organism-based; conditions: dose mg/kg 3.125-12.5, time 16.0 hrs
[15] = system: Mus musculus; assay: Anti-inflammatory activity against LPS-induced ALI Kunming mouse model assessed as reduction in iNOS expression in lung at 3.125 to 12.5 mg/kg, po administered 4 hrs prior to LPS instillation and measured at 12 hrs post-LPS instillation by immunohistochemistry; format: functional, organism-based; conditions: dose mg/kg 3.125-12.5, time 16.0 hrs
[16] = molecular target: T1, Nitric oxide synthase, inducible (Mus musculus, UniProt P29477); assay: Inhibition of iNOS in mouse RAW264.7 cells assessed as inhibition of LPS-induced nitric oxide overproduction incubated for 24 hrs by Griess assay; format: cell-based
T1 sequence (P29477 whole entry): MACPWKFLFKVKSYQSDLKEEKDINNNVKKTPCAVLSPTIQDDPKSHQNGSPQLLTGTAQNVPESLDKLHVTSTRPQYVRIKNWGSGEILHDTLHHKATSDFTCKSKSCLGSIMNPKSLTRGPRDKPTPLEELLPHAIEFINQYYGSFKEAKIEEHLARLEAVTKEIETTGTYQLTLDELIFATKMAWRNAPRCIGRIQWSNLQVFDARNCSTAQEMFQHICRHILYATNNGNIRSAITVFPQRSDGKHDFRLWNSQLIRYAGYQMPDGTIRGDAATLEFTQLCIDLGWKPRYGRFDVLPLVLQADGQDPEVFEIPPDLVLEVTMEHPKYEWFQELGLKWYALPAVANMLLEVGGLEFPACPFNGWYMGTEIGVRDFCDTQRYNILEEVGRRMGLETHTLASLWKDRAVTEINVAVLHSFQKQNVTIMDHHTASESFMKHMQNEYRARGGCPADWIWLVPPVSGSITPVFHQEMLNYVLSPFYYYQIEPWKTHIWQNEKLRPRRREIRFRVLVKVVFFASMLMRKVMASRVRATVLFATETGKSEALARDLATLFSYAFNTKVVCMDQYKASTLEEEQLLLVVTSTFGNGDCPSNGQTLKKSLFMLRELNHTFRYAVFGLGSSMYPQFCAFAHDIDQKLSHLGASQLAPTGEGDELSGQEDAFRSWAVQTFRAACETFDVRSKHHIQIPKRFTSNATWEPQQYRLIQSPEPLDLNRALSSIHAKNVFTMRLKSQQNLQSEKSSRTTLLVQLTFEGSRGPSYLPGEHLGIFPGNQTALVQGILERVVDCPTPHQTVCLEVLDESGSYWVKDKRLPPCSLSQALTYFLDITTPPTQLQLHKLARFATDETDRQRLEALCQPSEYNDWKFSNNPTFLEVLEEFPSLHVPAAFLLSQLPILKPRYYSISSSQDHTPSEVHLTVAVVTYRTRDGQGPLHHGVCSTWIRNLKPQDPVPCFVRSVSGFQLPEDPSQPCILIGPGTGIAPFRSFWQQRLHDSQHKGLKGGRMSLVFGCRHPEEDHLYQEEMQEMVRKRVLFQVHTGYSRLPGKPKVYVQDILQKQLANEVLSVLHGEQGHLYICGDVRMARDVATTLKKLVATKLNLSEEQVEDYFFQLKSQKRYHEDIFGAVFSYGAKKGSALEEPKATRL

[17] = species: Mus musculus; conditions: Kunming, dose 12.5 mg/kg, time 90.0 min

SMILES	Activity [1]	pIC50 [3]	Activity [8]	inhibition in vivo at 12.5 mg/kg [9]	Activity [10]	Activity [13]	pIC50 [16]	further results
Cc1ccc(Cn2c(=O)oc3cccc(OS(=O)(=O)c4cn(C)cn4)c32)cc1	Non-Toxic							
CN(C)c1cccc2c(S(=O)(=O)Oc3cccc4oc(=O)n(CCc5ccccc5)c34)cccc12	Non-Toxic	5.48	Active	> 50%	Active	Active	4.83	Activity [2]: Dose-dependent effect; Activity [4]: Dose-dependent effect; Activity [5]: Dose-dependent effect; Activity [6]: Dose-dependent effect; Activity [7]: Dose-dependent effect; Activity [11]: Dose-dependent effect; Activity [12]: Active; Activity [14]: Dose-dependent effect; Activity [15]: Dose-dependent effect
CN(C)c1cccc2c(S(=O)(=O)Oc3cccc4oc(=O)n(Cc5ccccc5)c34)cccc12	Non-Toxic	5.34	Active	> 50%	Active	Active	4.78	
Cn1cnc(S(=O)(=O)Oc2cccc3oc(=O)n(Cc4ccc([N+](=O)[O-])cc4)c23)c1	Non-Toxic							
Cc1ccccc1S(=O)(=O)Oc1cccc2oc(=O)n(CCc3ccccc3)c12	Non-Toxic							
Cn1cnc(S(=O)(=O)Oc2cccc3oc(=O)n(CCc4ccccc4)c23)c1	Non-Toxic	5.01	Active	> 50%	Active	Active	4.87	
Cn1cnc(S(=O)(=O)Oc2cccc3oc(=O)n(Cc4ccccc4)c23)c1	Non-Toxic		Active	> 50%	Active	Active		
N=C(NCCC[C@H](N)C(=O)O)N[N+](=O)[O-] [NITROARGININE]		5.53					4.56	inhibition [17]: Active
